{"source": "patent US20060057181A1", "about": "“Method for determining the gastric evacuation using a 13c-labelled test meal” (priority 2002, published 2006)", "assay": "13C-octanoic acid breath test of gastric emptying: 13CO2 excretion in exhaled respiratory air measured by IRMS after test meal", "procedure": "The thus formed ^13CO2 is then measured in the exhaled respiratory air by means of IRMS. IRMS (isotope ratio mass spectrography) has in the meantime become the most sensitive and best method for determining ^13CO2 in the exhaled respiratory air.\nTherefore, the sampling and optimum calculation take three to four hours. The interval for sampling is optimal at 15 min.\nFurther, the patient need not sit calmly between the measuring devices for radioactivity. Rather, it is sufficient if they blow samples of their respiratory air into collecting devices every 12 minutes. For example, the so-called vacutainerss are particularly suitable for this purpose. These samples of the exhaled respiratory air may then be measured and evaluated in a central laboratory with a correspondingly sensitive IRMS equipment.", "data": [{"smiles": "CCCCCCC[13C](=O)O", "note": "[^13C-octanoic acid]", "values": [{"measurement": "maximum of 13CO2 excretion", "setting": "normal gastric emptying (patient No. 1), free 13C-octanoic acid bound to egg yolk, oral test meal, exhaled air, IRMS", "result": "> 2.9", "unit": "h"}, {"measurement": "maximum of 13CO2 excretion", "setting": "somewhat faster gastric emptying (patient No. 5)", "result": "> 2.9", "unit": "h"}, {"measurement": "maximum of 13CO2 excretion", "setting": "very delayed gastric emptying (patient No. 4)", "result": "< 2.5", "unit": "h"}]}]}
